≈ marks a conversion by molar mass, not a printed value.
Tests used:
[1] = tested on: Staphylococcus aureus; test: Antibacterial activity against TMP-resistant Staphylococcus aureus BHKS 227 incubated for 24 hrs by CLSI based broth microdilution assay; assay type: functional
[2] = Cytotoxicity against human NCM460 cells assessed as inhibition rate of cell growth at 100 uM incubated for 24 hrs by CCK8 assay relative to control; assay type: toxicity, cell-based
[3] = tested on: Dihydrofolate reductase (Staphylococcus aureus); conditions: dose 100.0 nM
[4] = tested on: Staphylococcus aureus; test: Antibacterial activity against TMP-resistant Staphylococcus aureus BHKS 721 incubated for 24 hrs by CLSI based broth microdilution assay; assay type: functional
[5] = Cytotoxicity against HEK293 cells assessed as inhibition rate of cell growth at 100 uM incubated for 24 hrs by CCK8 assay relative to control; assay type: toxicity, cell-based; conditions: human
[6] = tested on: Staphylococcus aureus; test: Antibacterial activity against Staphylococcus aureus ATCC 25923 incubated for 24 hrs by CLSI based broth microdilution assay; assay type: functional
[7] = tested on: Staphylococcus aureus; test: Antibacterial activity against Staphylococcus aureus USA 300 incubated for 24 hrs by CLSI based broth microdilution assay; assay type: functional
[8] = tested on: Staphylococcus aureus; test: Antibacterial activity against TMP-resistant Staphylococcus aureus BHKS 723 incubated for 24 hrs by CLSI based broth microdilution assay; assay type: functional

SMILES	MIC [1]	inhibition at 24 h, 100 µM [2]	inhibition [3]	MIC [4]	inhibition at 24 h, 100 µM [5]	MIC [6]	MIC [7]	MIC [8]
CCc1cc(Oc2cnc(N)nc2N)c(C(C)CC)cc1OC (stereo not drawn)	4 µg/mL (≈ 12.6 µM)	48.4%	4.32%	16 µg/mL (≈ 50.6 µM)	23.2%	1 µg/mL (≈ 3.16 µM)	1 µg/mL (≈ 3.16 µM)	32 µg/mL (≈ 101 µM)
CC(C)c1cc(OCCc2ccccc2)c(I)cc1Oc1cnc(N)nc1N	2 µg/mL (≈ 4.08 µM)	33.7%	76.4%	4 µg/mL (≈ 8.16 µM)	62%	0.125 µg/mL (≈ 0.255 µM)	0.125 µg/mL (≈ 0.255 µM)	4 µg/mL (≈ 8.16 µM)
CC(C)c1cc(OCC2CCCCC2)c(I)cc1Oc1cnc(N)nc1N	> 32 µg/mL	65%	59.8%	32 µg/mL (≈ 66.3 µM)	36.7%	0.5 µg/mL (≈ 1.04 µM)	0.5 µg/mL (≈ 1.04 µM)	> 32 µg/mL
COc1cc(C(C)C)c(Oc2cnc(N)nc2N)cc1-c1ccc(O)cc1	0.5 µg/mL (≈ 1.36 µM)	53.1%	72.3%	1 µg/mL (≈ 2.73 µM)	22.9%	0.125 µg/mL (≈ 0.341 µM)	0.063 µg/mL (≈ 0.172 µM)	8 µg/mL (≈ 21.8 µM)
COc1cc(C(C)C)c(Oc2cnc(N)nc2N)cc1-c1ccc(C(F)(F)F)c(Cl)c1	4 µg/mL (≈ 8.83 µM)	41.9%	65.7%	4 µg/mL (≈ 8.83 µM)	42.1%	1 µg/mL (≈ 2.21 µM)	2 µg/mL (≈ 4.42 µM)	4 µg/mL (≈ 8.83 µM)
CCCC(C)Oc1cc(C(C)C)c(Oc2cnc(N)nc2N)cc1I (stereo not drawn)	2 µg/mL (≈ 4.38 µM)	11.5%	31.7%	4 µg/mL (≈ 8.77 µM)	55.6%	0.063 µg/mL (≈ 0.138 µM)	0.063 µg/mL (≈ 0.138 µM)	4 µg/mL (≈ 8.77 µM)
CCCCCCOc1cc(C(C)C)c(Oc2cnc(N)nc2N)cc1I	8 µg/mL (≈ 17 µM)	66%	42.9%	8 µg/mL (≈ 17 µM)	41.5%	1 µg/mL (≈ 2.13 µM)	1 µg/mL (≈ 2.13 µM)	4 µg/mL (≈ 8.5 µM)
COc1cc(C(C)C)c(Oc2cnc(N)nc2N)cc1C	4 µg/mL (≈ 13.9 µM)	57.3%	65.9%	16 µg/mL (≈ 55.5 µM)	15.6%	1 µg/mL (≈ 3.47 µM)	1 µg/mL (≈ 3.47 µM)	32 µg/mL (≈ 111 µM)
COc1ccc(-c2cc(Oc3cnc(N)nc3N)c(C(C)C)cc2OC)cc1	1 µg/mL (≈ 2.63 µM)	69.5%	19.9%	16 µg/mL (≈ 42.1 µM)	19.9%	0.25 µg/mL (≈ 0.657 µM)	0.125 µg/mL (≈ 0.329 µM)	16 µg/mL (≈ 42.1 µM)
COc1cc(C(C)C)c(Oc2cnc(N)nc2N)cc1-c1ccc(-c2ccccc2)cc1	2 µg/mL (≈ 4.69 µM)	66%	26.8%	4 µg/mL (≈ 9.38 µM)	31.5%	0.5 µg/mL (≈ 1.17 µM)	0.5 µg/mL (≈ 1.17 µM)	4 µg/mL (≈ 9.38 µM)
COc1cc(C(C)C)c(Oc2cnc(N)nc2N)cc1-c1cccc(Cl)c1	1 µg/mL (≈ 2.6 µM)	18.8%	67.2%	4 µg/mL (≈ 10.4 µM)	29.3%	0.063 µg/mL (≈ 0.164 µM)	0.063 µg/mL (≈ 0.164 µM)	4 µg/mL (≈ 10.4 µM)
CC(C)c1ccc(-c2cc(Oc3cnc(N)nc3N)c(C(C)C)cc2OCC2CC2)cc1	4 µg/mL (≈ 9.25 µM)	30.2%	75.4%	2 µg/mL (≈ 4.62 µM)	19.3%	1 µg/mL (≈ 2.31 µM)	1 µg/mL (≈ 2.31 µM)	4 µg/mL (≈ 9.25 µM)
CCCCOc1cc(C(C)C)c(Oc2cnc(N)nc2N)cc1-c1cc(Cl)cc(Cl)c1	8 µg/mL (≈ 17.3 µM)	42.5%	75%	8 µg/mL (≈ 17.3 µM)	43%	2 µg/mL (≈ 4.33 µM)	1 µg/mL (≈ 2.17 µM)	8 µg/mL (≈ 17.3 µM)
COc1cc(C(C)C)c(Oc2cnc(N)nc2N)cc1-c1cc(C(F)(F)F)cc(C(F)(F)F)c1	8 µg/mL (≈ 16.4 µM)	64.2%	> 100%	8 µg/mL (≈ 16.4 µM)	38.6%	4 µg/mL (≈ 8.22 µM)	8 µg/mL (≈ 16.4 µM)	8 µg/mL (≈ 16.4 µM)
COc1cc(C(C)C)c(Oc2cnc(N)nc2N)cc1-c1ccccc1Cl	16 µg/mL (≈ 41.6 µM)	29%	74.3%	32 µg/mL (≈ 83.1 µM)	37.8%	4 µg/mL (≈ 10.4 µM)	4 µg/mL (≈ 10.4 µM)	32 µg/mL (≈ 83.1 µM)
COc1cc(OC)cc(-c2cc(Oc3cnc(N)nc3N)c(C(C)C)cc2OC)c1	8 µg/mL (≈ 19.5 µM)	66.8%	40.5%	32 µg/mL (≈ 78 µM)	29.7%	2 µg/mL (≈ 4.87 µM)	2 µg/mL (≈ 4.87 µM)	32 µg/mL (≈ 78 µM)
